One experiment has as its target T1, AadA wild type (Salmonella typhimurium, UniProt Q8ZPX9).
T1 construct: made in house; host or cells: Escherichia coli BL21 Star
T1 sequence (Q8ZPX9 1-262): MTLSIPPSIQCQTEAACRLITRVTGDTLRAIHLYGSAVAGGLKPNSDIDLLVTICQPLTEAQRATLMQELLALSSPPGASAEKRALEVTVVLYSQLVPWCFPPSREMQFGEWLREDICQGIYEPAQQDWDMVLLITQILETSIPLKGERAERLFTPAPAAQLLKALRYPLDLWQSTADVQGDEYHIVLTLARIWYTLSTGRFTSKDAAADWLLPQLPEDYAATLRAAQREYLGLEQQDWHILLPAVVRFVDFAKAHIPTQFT
Description: ITC binding, wild-type AadA. Further details: species or system Salmonella enterica. As to conditions: for Kd: ITC; for binding to AadA in the absence of ATP (ITC): data not shown. Here is the method: (§1) Binding studies were performed at 25°C using a MicroCal iTC200 instrument (GE Healthcare). Wild-type or mutant AadA at 20–30 µM concentration was dialyzed overnight against 50 mM Tris–HCl pH 7.5, 200 mM NaCl, 5 mM MgCl2, 1 mM tris(2-carboxyethyl)phosphine and titrated with 500–1000 µM ATP, streptomycin (Sigma) or spectinomycin (Sigma) freshly dissolved in the same batch of dialysis buffer prior to each experiment. For titration of streptomycin/spectinomycin in the presence of ATP, a first titration of AadA with ATP to saturation was followed by a second titration with streptomycin/spectinomycin in buffer containing an equivalent concentration of ATP as in the cell. In this way, heats of dilution of ATP were avoided. At least […] consecutive injections of 2 µl were applied at 2 min intervals. The data were analyzed using the MicroCal Analysis plugin in Origin. All ITC data were analyzed assuming one set of binding sites. Each experiment was performed at least twice. For spectinomycin, the concentration used to fit the data was adjusted to the estimated active concentration in binding to AadA, assuming 1:1 binding.

The next experiment has as its target T2, AadA W112F (Salmonella typhimurium, UniProt Q8ZPX9, W112F).
T2 construct: made in house; host or cells: Escherichia coli BL21 Star
T2 sequence (Q8ZPX9 1-262 W112F): T1 sequence (Q8ZPX9 1-262) with W112F
Description: ITC binding, AadA W112F. On the set-up: species or system Salmonella enterica. As to conditions: 25°C, in the presence of ATP, read-out: K d of substrate ligand (streptomycin / spectinomycin). Here is the method: as §1

The target of a further experiment is T3, AadA D182N (Salmonella typhimurium, UniProt Q8ZPX9, D182N).
T3 construct: made in house; host or cells: Escherichia coli BL21 Star
T3 sequence (Q8ZPX9 1-262 D182N): T1 sequence (Q8ZPX9 1-262) with D182N
In words: ITC binding, AadA D182N. Further details: species or system Salmonella enterica. As to conditions: 25°C, in the presence of ATP, read-out: K d of substrate ligand (streptomycin / spectinomycin). The method, then: as §1

In another experiment the target is T4, AadA R192A (Salmonella typhimurium, UniProt Q8ZPX9, R192A).
T4 construct: made in house; host or cells: Escherichia coli BL21 Star
T4 sequence (Q8ZPX9 1-262 R192A): T1 sequence (Q8ZPX9 1-262) with R192A
In words: ITC binding, AadA R192A. On the set-up: species or system Salmonella enterica. As to conditions: for Kd: in the presence of ATP, read-out: K d of substrate ligand (streptomycin / spectinomycin). Here is the method:
as §1

A further experiment addresses T5, AadA K205A (Salmonella typhimurium, UniProt Q8ZPX9, K205A).
T5 construct: made in house; host or cells: Escherichia coli BL21 Star
T5 sequence (Q8ZPX9 1-262 K205A): T1 sequence (Q8ZPX9 1-262) with K205A
In words: ITC binding, AadA K205A. On the set-up: species or system Salmonella enterica. As to conditions: for Kd: in the presence of ATP, read-out: K d of substrate ligand (streptomycin / spectinomycin). Here is the method:
as §1

Experiment [1] deals with AadA Glu87 mutants (E87A and E87Q). In words: ITC binding, Glu87 mutants of AadA stated together. On the set-up: species or system Salmonella enterica. The method, then:
as §1

Another experiment concerns the target T6, AadA E87A (Salmonella typhimurium, UniProt Q8ZPX9, E87A).
T6 construct: made in house; host or cells: Escherichia coli BL21 Star
T6 sequence (Q8ZPX9 1-262 E87A): T1 sequence (Q8ZPX9 1-262) with E87A
Description: ITC binding, AadA E87A. Further details: species or system Salmonella enterica. As to conditions: 25°C, in the presence of ATP, nb = no binding detected. Here is the method: as §1

A further experiment deals with T7, AadA E87Q (Salmonella typhimurium, UniProt Q8ZPX9, E87Q).
T7 construct: made in house; host or cells: Escherichia coli BL21 Star
T7 sequence (Q8ZPX9 1-262 E87Q): T1 sequence (Q8ZPX9 1-262) with E87Q
In words: ITC binding, AadA E87Q. As to conditions: 25°C, in the presence of ATP, nb = no binding detected. On the set-up: species or system Salmonella enterica. Here is the method: as §1

Another experiment concerns bacterial growth. On the set-up: method as in vendor (Sigma). As to conditions: as sold; as estimated from a bacterial growth assay; ref vendor (Sigma); cited from earlier work.
Where [2] appears, read: 25°C, in the presence of ATP, wild type AadA, read-out: K d of substrate ligand (streptomycin / spectinomycin).
Where [3] appears, read: ITC, 25°C, 5 mM MgCl2, nb = no binding detected.

SMILES strings stand for the structures. Residue numbers refer to the chain shown, from its start. Like-named read-outs stand apart in the source and are kept apart here. Bounds are passed on as bounds.

`[H]/N=C(/N)N[C@H]1[C@H](O)[C@@H](O)[C@H](O[C@@H]2O[C@@H](C)[C@](O)(C=O)[C@H]2O[C@@H]2O[C@@H](CO)[C@H](O)[C@@H](O)[C@@H]2NC)[C@@H](N/C(N)=N\[H])[C@@H]1O` [Streptomycin, streptomycin]: the Kd was 500 nM on AadA wild type (setting [2]); 800 nM at AadA W112F; 700 nM on AadA D182N; above 100000 nM at AadA R192A (ITC, 25°C); 1300 nM at AadA K205A (ITC, 25°C). Further, the “binding to AadA in the absence of ATP (ITC)” value on AadA wild type is “did not display detectable binding”. Besides, the “lowered affinity for streptomycin” value in [1] (Glu87 mutants vs wild type, ITC) is on record as 20–40 fold.
For `Nc1ncnc2c1ncn2[C@@H]1O[C@H](COP(=O)(O)CP(=O)(O)OP(=O)(O)O)[C@@H](O)[C@H]1O` [AMPCPP], at AadA wild type (nucleotide titrated alone), the “binding to wild-type AadA (ITC)” value is recorded as “did not show any detectable binding”.
For `CN[C@@H]1[C@H](O)[C@H](NC)[C@H]2O[C@@]3(O)C(=O)C[C@@H](C)O[C@H]3O[C@@H]2[C@H]1O` [Spectinomycin, spectinomycin], the Kd at AadA wild type (setting [2]) was 500 nM; on AadA W112F, 600 nM; at AadA D182N, above 30000 nM; on AadA R192A (ITC, 25°C) it was above 30000 nM; on AadA K205A (ITC, 25°C), above 10000 nM. Also, the “binding to AadA in the absence of ATP (ITC)” value at AadA wild type is on record as “did not display detectable binding”. In addition, the “activity in binding to AadA, of the assumed active concentration” value at AadA wild type (from fit of the ITC data assuming 1:1 binding) was 31%. The “K d of substrate ligand (streptomycin / spectinomycin)” value at AadA E87A and on AadA E87Q was “nb” each time. Besides, the “binding of spectinomycin (ITC)” value in experiment [1] (Glu87 mutants) is recorded as “no measurable binding”. Besides, the potency in the experiment on bacterial growth is 603 µg/mg.
On to `Nc1ncnc2c1ncn2[C@@H]1O[C@H](COP(=O)(O)OP(=O)(O)OP(=O)(O)O)[C@@H](O)[C@H]1O` [ATP], for which the Kd on AadA wild type (wild-type AadA, read-out: K d of ATP) was determined as 13000 nM. Also, the “ATP binding (ITC)” value at AadA R192A and at AadA K205A was “no ATP binding could be detected” each time. The “K d(ATP)” value at AadA R192A (setting [3]) and on AadA K205A (setting [3]) was “nb” throughout. The “lower affinity for ATP compared with the wild type” value in [1] (E87Q and E87A vs wild type, ITC) is recorded as “threefold to fourfold lower affinity”.

Values taken from paper PMC4631478, “Structure of AadA from Salmonella enterica: a monomeric aminoglycoside (3′′)(9) adenyltransferase” (Acta Crystallographica Section D: Biological Crystallography, 2015).
